Source: the supplement of paper PMC10307832

Assays:
Assay in all cases: relative viability (nuclei count vs DMSO), 5 days (fraction); higher = more cells survive
Venetoclax + Phenformin = compound: CC1(C)CCC(CN2CCN(c3ccc(C(=O)NS(=O)(=O)c4ccc(NCC5CCOCC5)c([N+](=O)[O-])c4)c(Oc4cnc5[nH]ccc5c4)c3)CC2)=C(c2ccc(Cl)cc2)C1 [Venetoclax] + N=C(N)NC(=N)NCCc1ccccc1 [Phenformin] (partner 250 µM)
How it was run: (§1)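 Relative viability equals treated-well nuclei counts divided by vehicle-well nuclei counts. Counts came from 4× images of lung cancer cell lines grown in 1536-well plates for 5 days after pin-tool dosing on the day after seeding. Dosing used one drug alone or a fixed anchor-drug dose plus five library-drug doses (not always all listed) in √10 steps, and values are medians of duplicate plates.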

Selumetinib + Lapatinib = compound: Cn1cnc2c(F)c(Nc3ccc(Br)cc3Cl)c(C(=O)NOCCO)cc21 [Selumetinib] + CS(=O)(=O)CCNCc1ccc(-c2ccc3ncnc(Nc4ccc(OCc5cccc(F)c5)c(Cl)c4)c3c2)o1 [Lapatinib] (partner 2 µM)
How it was run: as §1

Selumetinib + Bortezomib = compound: Cn1cnc2c(F)c(Nc3ccc(Br)cc3Cl)c(C(=O)NOCCO)cc21 [Selumetinib] + CC(C)C[C@H](NC(=O)[C@H](Cc1ccccc1)NC(=O)c1cnccn1)B(O)O [Bortezomib] (partner 0.002 µM)
How it was run: as §1

Venetoclax + Tozasertib = compound: CC1(C)CCC(CN2CCN(c3ccc(C(=O)NS(=O)(=O)c4ccc(NCC5CCOCC5)c([N+](=O)[O-])c4)c(Oc4cnc5[nH]ccc5c4)c3)CC2)=C(c2ccc(Cl)cc2)C1 [Venetoclax] + Cc1cc(Nc2cc(N3CCN(C)CC3)nc(Sc3ccc(NC(=O)C4CC4)cc3)n2)n[nH]1 [Tozasertib] (partner 0.1 µM)
How it was run: as §1

NCI-H1975
relative viability (Venetoclax + Phenformin; first compound 0.01 µM): 0.429
relative viability (Venetoclax + Phenformin; first compound 0.03162 µM): 0.397
relative viability (Venetoclax + Phenformin; first compound 0.1 µM): 0.401
relative viability (Venetoclax + Phenformin; first compound 0.3162 µM): 0.41
relative viability (Venetoclax + Phenformin; first compound 1 µM): 0.366
relative viability (Selumetinib + Lapatinib; first compound 0.02 µM): 0.856
relative viability (Selumetinib + Lapatinib; first compound 0.06325 µM): 0.65
relative viability (Selumetinib + Lapatinib; first compound 0.2 µM): 0.794
relative viability (Selumetinib + Lapatinib; first compound 0.6325 µM): 0.674
relative viability (Selumetinib + Bortezomib; first compound 0.02 µM): 0.324
relative viability (Selumetinib + Bortezomib; first compound 0.06325 µM): 0.282
relative viability (Selumetinib + Bortezomib; first compound 0.2 µM): 0.262
relative viability (Selumetinib + Bortezomib; first compound 0.6325 µM): 0.221
relative viability (Venetoclax + Tozasertib; first compound 0.01 µM): 0.763
relative viability (Venetoclax + Tozasertib; first compound 0.03162 µM): 0.711
relative viability (Venetoclax + Tozasertib; first compound 0.1 µM): 0.726
relative viability (Venetoclax + Tozasertib; first compound 0.3162 µM): 0.658
relative viability (Venetoclax + Tozasertib; first compound 1 µM): 0.374

NCI-H1993
relative viability (Venetoclax + Phenformin; first compound 0.01 µM): 0.603
relative viability (Venetoclax + Phenformin; first compound 0.03162 µM): 0.494
relative viability (Venetoclax + Phenformin; first compound 0.1 µM): 0.473
relative viability (Venetoclax + Phenformin; first compound 0.3162 µM): 0.48
relative viability (Venetoclax + Phenformin; first compound 1 µM): 0.528
relative viability (Selumetinib + Lapatinib; first compound 0.02 µM): 0.931
relative viability (Selumetinib + Lapatinib; first compound 0.06325 µM): 0.762
relative viability (Selumetinib + Lapatinib; first compound 0.2 µM): 0.887
relative viability (Selumetinib + Lapatinib; first compound 0.6325 µM): 0.706
relative viability (Selumetinib + Bortezomib; first compound 0.02 µM): 0.861
relative viability (Selumetinib + Bortezomib; first compound 0.06325 µM): 0.897
relative viability (Selumetinib + Bortezomib; first compound 0.2 µM): 0.873
relative viability (Selumetinib + Bortezomib; first compound 0.6325 µM): 0.806
relative viability (Venetoclax + Tozasertib; first compound 0.01 µM): 0.588
relative viability (Venetoclax + Tozasertib; first compound 0.03162 µM): 0.561
relative viability (Venetoclax + Tozasertib; first compound 0.1 µM): 0.614
relative viability (Venetoclax + Tozasertib; first compound 0.3162 µM): 0.58
relative viability (Venetoclax + Tozasertib; first compound 1 µM): 0.607

NCI-H2009
relative viability (Venetoclax + Phenformin; first compound 0.01 µM): 0.48
relative viability (Venetoclax + Phenformin; first compound 0.03162 µM): 0.459
relative viability (Venetoclax + Phenformin; first compound 0.1 µM): 0.439
relative viability (Venetoclax + Phenformin; first compound 0.3162 µM): 0.446
relative viability (Venetoclax + Phenformin; first compound 1 µM): 0.337
relative viability (Selumetinib + Lapatinib; first compound 0.02 µM): 0.786
relative viability (Selumetinib + Lapatinib; first compound 0.06325 µM): 0.567
relative viability (Selumetinib + Lapatinib; first compound 0.2 µM): 0.596
relative viability (Selumetinib + Lapatinib; first compound 0.6325 µM): 0.375
relative viability (Selumetinib + Bortezomib; first compound 0.02 µM): 0.788
relative viability (Selumetinib + Bortezomib; first compound 0.06325 µM): 0.591
relative viability (Selumetinib + Bortezomib; first compound 0.2 µM): 0.538
relative viability (Selumetinib + Bortezomib; first compound 0.6325 µM): 0.362
relative viability (Venetoclax + Tozasertib; first compound 0.01 µM): 0.775
relative viability (Venetoclax + Tozasertib; first compound 0.03162 µM): 0.748
relative viability (Venetoclax + Tozasertib; first compound 0.1 µM): 0.743
relative viability (Venetoclax + Tozasertib; first compound 0.3162 µM): 0.759
relative viability (Venetoclax + Tozasertib; first compound 1 µM): 0.538

NCI-H2023
relative viability (Venetoclax + Phenformin; first compound 0.01 µM): 0.434
relative viability (Venetoclax + Phenformin; first compound 0.03162 µM): 0.393
relative viability (Venetoclax + Phenformin; first compound 0.1 µM): 0.435
relative viability (Venetoclax + Phenformin; first compound 0.3162 µM): 0.434
relative viability (Venetoclax + Phenformin; first compound 1 µM): 0.378
relative viability (Selumetinib + Lapatinib; first compound 0.02 µM): 0.893
relative viability (Selumetinib + Lapatinib; first compound 0.06325 µM): 0.692
relative viability (Selumetinib + Lapatinib; first compound 0.2 µM): 0.747
relative viability (Selumetinib + Lapatinib; first compound 0.6325 µM): 0.766
relative viability (Selumetinib + Bortezomib; first compound 0.02 µM): 0.899
relative viability (Selumetinib + Bortezomib; first compound 0.06325 µM): 0.785
relative viability (Selumetinib + Bortezomib; first compound 0.2 µM): 0.895
relative viability (Selumetinib + Bortezomib; first compound 0.6325 µM): 0.896
relative viability (Venetoclax + Tozasertib; first compound 0.01 µM): 0.328
relative viability (Venetoclax + Tozasertib; first compound 0.03162 µM): 0.407
relative viability (Venetoclax + Tozasertib; first compound 0.1 µM): 0.392
relative viability (Venetoclax + Tozasertib; first compound 0.3162 µM): 0.393
relative viability (Venetoclax + Tozasertib; first compound 1 µM): 0.218

NCI-H2085
relative viability (Venetoclax + Phenformin; first compound 0.01 µM): 0.635
relative viability (Venetoclax + Phenformin; first compound 0.03162 µM): 0.762
relative viability (Venetoclax + Phenformin; first compound 0.1 µM): 0.688
relative viability (Venetoclax + Phenformin; first compound 0.3162 µM): 0.766
relative viability (Venetoclax + Phenformin; first compound 1 µM): 0.655
relative viability (Selumetinib + Lapatinib; first compound 0.02 µM): 0.75
relative viability (Selumetinib + Lapatinib; first compound 0.06325 µM): 0.706
relative viability (Selumetinib + Lapatinib; first compound 0.2 µM): 0.713
relative viability (Selumetinib + Lapatinib; first compound 0.6325 µM): 0.68
relative viability (Selumetinib + Bortezomib; first compound 0.02 µM): 1
relative viability (Selumetinib + Bortezomib; first compound 0.06325 µM): 0.947
relative viability (Selumetinib + Bortezomib; first compound 0.2 µM): 0.926
relative viability (Selumetinib + Bortezomib; first compound 0.6325 µM): 0.916
relative viability (Venetoclax + Tozasertib; first compound 0.01 µM): 0.833
relative viability (Venetoclax + Tozasertib; first compound 0.03162 µM): 0.77
relative viability (Venetoclax + Tozasertib; first compound 0.1 µM): 0.757
relative viability (Venetoclax + Tozasertib; first compound 0.3162 µM): 0.761
relative viability (Venetoclax + Tozasertib; first compound 1 µM): 0.815

NCI-H2087
relative viability (Venetoclax + Phenformin; first compound 0.01 µM): 0.461
relative viability (Venetoclax + Phenformin; first compound 0.03162 µM): 0.471
relative viability (Venetoclax + Phenformin; first compound 0.1 µM): 0.387
relative viability (Venetoclax + Phenformin; first compound 0.3162 µM): 0.407
relative viability (Venetoclax + Phenformin; first compound 1 µM): 0.461
relative viability (Selumetinib + Lapatinib; first compound 0.02 µM): 0.86
relative viability (Selumetinib + Lapatinib; first compound 0.06325 µM): 0.87
relative viability (Selumetinib + Lapatinib; first compound 0.2 µM): 0.56
relative viability (Selumetinib + Lapatinib; first compound 0.6325 µM): 0.441
relative viability (Selumetinib + Bortezomib; first compound 0.02 µM): 0.626
relative viability (Selumetinib + Bortezomib; first compound 0.06325 µM): 0.542
relative viability (Selumetinib + Bortezomib; first compound 0.2 µM): 0.456
relative viability (Selumetinib + Bortezomib; first compound 0.6325 µM): 0.351
relative viability (Venetoclax + Tozasertib; first compound 0.01 µM): 0.278
relative viability (Venetoclax + Tozasertib; first compound 0.03162 µM): 0.261
relative viability (Venetoclax + Tozasertib; first compound 0.1 µM): 0.245
relative viability (Venetoclax + Tozasertib; first compound 0.3162 µM): 0.241
relative viability (Venetoclax + Tozasertib; first compound 1 µM): 0.229

NCI-H2126
relative viability (Venetoclax + Phenformin; first compound 0.01 µM): 0.528
relative viability (Venetoclax + Phenformin; first compound 0.03162 µM): 0.56
relative viability (Venetoclax + Phenformin; first compound 0.1 µM): 0.513
relative viability (Venetoclax + Phenformin; first compound 0.3162 µM): 0.582
relative viability (Venetoclax + Phenformin; first compound 1 µM): 0.51
relative viability (Selumetinib + Lapatinib; first compound 0.02 µM): 0.714
relative viability (Selumetinib + Lapatinib; first compound 0.06325 µM): 0.671
relative viability (Selumetinib + Lapatinib; first compound 0.2 µM): 0.7
relative viability (Selumetinib + Lapatinib; first compound 0.6325 µM): 0.667
relative viability (Selumetinib + Bortezomib; first compound 0.02 µM): 1.09
relative viability (Selumetinib + Bortezomib; first compound 0.06325 µM): 1.01
relative viability (Selumetinib + Bortezomib; first compound 0.2 µM): 0.984
relative viability (Selumetinib + Bortezomib; first compound 0.6325 µM): 0.996
relative viability (Venetoclax + Tozasertib; first compound 0.01 µM): 0.822
relative viability (Venetoclax + Tozasertib; first compound 0.03162 µM): 0.791
relative viability (Venetoclax + Tozasertib; first compound 0.1 µM): 0.867
relative viability (Venetoclax + Tozasertib; first compound 0.3162 µM): 0.86
relative viability (Venetoclax + Tozasertib; first compound 1 µM): 0.759

NCI-H2228
relative viability (Venetoclax + Phenformin; first compound 0.01 µM): 0.366
relative viability (Venetoclax + Phenformin; first compound 0.03162 µM): 0.322
relative viability (Venetoclax + Phenformin; first compound 0.1 µM): 0.234
relative viability (Venetoclax + Phenformin; first compound 0.3162 µM): 0.422
relative viability (Venetoclax + Phenformin; first compound 1 µM): 0.408
relative viability (Selumetinib + Lapatinib; first compound 0.02 µM): 1.01
relative viability (Selumetinib + Lapatinib; first compound 0.06325 µM): 0.765
relative viability (Selumetinib + Lapatinib; first compound 0.2 µM): 0.852
relative viability (Selumetinib + Lapatinib; first compound 0.6325 µM): 0.695
relative viability (Selumetinib + Bortezomib; first compound 0.02 µM): 0.923
relative viability (Selumetinib + Bortezomib; first compound 0.06325 µM): 0.989
relative viability (Selumetinib + Bortezomib; first compound 0.2 µM): 0.75
relative viability (Selumetinib + Bortezomib; first compound 0.6325 µM): 0.584
relative viability (Venetoclax + Tozasertib; first compound 0.01 µM): 0.251
relative viability (Venetoclax + Tozasertib; first compound 0.03162 µM): 0.313
relative viability (Venetoclax + Tozasertib; first compound 0.1 µM): 0.288
relative viability (Venetoclax + Tozasertib; first compound 0.3162 µM): 0.246
relative viability (Venetoclax + Tozasertib; first compound 1 µM): 0.25

NCI-H2347
relative viability (Venetoclax + Phenformin; first compound 0.01 µM): 0.316
relative viability (Venetoclax + Phenformin; first compound 0.03162 µM): 0.449
relative viability (Venetoclax + Phenformin; first compound 0.1 µM): 0.433
relative viability (Venetoclax + Phenformin; first compound 0.3162 µM): 0.424
relative viability (Venetoclax + Phenformin; first compound 1 µM): 0.33
relative viability (Selumetinib + Lapatinib; first compound 0.02 µM): 0.795
relative viability (Selumetinib + Lapatinib; first compound 0.06325 µM): 0.706
relative viability (Selumetinib + Lapatinib; first compound 0.2 µM): 0.574
relative viability (Selumetinib + Lapatinib; first compound 0.6325 µM): 0.436
relative viability (Selumetinib + Bortezomib; first compound 0.02 µM): 0.755
relative viability (Selumetinib + Bortezomib; first compound 0.06325 µM): 0.817
relative viability (Selumetinib + Bortezomib; first compound 0.2 µM): 0.6
relative viability (Selumetinib + Bortezomib; first compound 0.6325 µM): 0.45
relative viability (Venetoclax + Tozasertib; first compound 0.01 µM): 0.581
relative viability (Venetoclax + Tozasertib; first compound 0.03162 µM): 0.634
relative viability (Venetoclax + Tozasertib; first compound 0.1 µM): 0.476
relative viability (Venetoclax + Tozasertib; first compound 0.3162 µM): 0.597
relative viability (Venetoclax + Tozasertib; first compound 1 µM): 0.541
